What all share (test): Tyrosine kinase inhibition assay
What all share (assay type): biochemical
Holding throughout (conditions): single concentration 1.0 μM, read-out: percent inhibition

The target in one assay is AKT2 (PKB beta) (Homo sapiens, UniProt P31751). The essentials: (§1)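 Kinase activity was measured by Z′-LYTE peptide assay with ATP at the apparent Km, in kinase buffer (50 mM HEPES pH 7.5, 0.01% BRIJ-35, 10 mM MgCl2, 1 mM EGTA) with 1% DMSO final. Compounds were tested at a single 1.0 μM concentration and reported as percent inhibition; >80% counted as a hit.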
Another assay addresses BLK (Homo sapiens, UniProt P51451). Put shortly: as §1
The target in another assay is T1, DDR2 (Homo sapiens, UniProt Q16832).
T1 sequence (Q16832 22-855): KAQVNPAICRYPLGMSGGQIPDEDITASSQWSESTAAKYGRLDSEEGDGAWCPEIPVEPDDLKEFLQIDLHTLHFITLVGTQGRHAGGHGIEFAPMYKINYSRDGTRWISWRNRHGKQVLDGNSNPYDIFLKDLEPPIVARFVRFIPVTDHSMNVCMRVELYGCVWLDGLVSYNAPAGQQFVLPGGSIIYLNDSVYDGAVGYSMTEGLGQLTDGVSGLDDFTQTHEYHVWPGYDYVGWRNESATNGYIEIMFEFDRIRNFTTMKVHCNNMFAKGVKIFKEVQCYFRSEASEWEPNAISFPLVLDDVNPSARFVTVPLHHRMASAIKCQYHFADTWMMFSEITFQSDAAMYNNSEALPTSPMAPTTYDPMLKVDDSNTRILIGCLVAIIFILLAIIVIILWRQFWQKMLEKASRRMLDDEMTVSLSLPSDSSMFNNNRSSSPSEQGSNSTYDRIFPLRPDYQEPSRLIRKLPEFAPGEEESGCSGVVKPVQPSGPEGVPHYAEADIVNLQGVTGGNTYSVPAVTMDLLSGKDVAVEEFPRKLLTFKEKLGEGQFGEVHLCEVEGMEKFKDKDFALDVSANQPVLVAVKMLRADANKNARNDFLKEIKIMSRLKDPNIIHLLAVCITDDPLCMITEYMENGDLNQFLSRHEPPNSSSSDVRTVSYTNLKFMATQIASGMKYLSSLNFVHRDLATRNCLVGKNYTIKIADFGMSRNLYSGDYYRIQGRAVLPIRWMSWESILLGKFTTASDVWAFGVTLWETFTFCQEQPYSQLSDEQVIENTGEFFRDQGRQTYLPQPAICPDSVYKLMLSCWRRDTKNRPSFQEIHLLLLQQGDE
The essentials:
as §1

Another assay addresses BRAF (Homo sapiens, UniProt P15056). Put shortly:
as §1

The target of another assay is T2, EPHA6 (Homo sapiens, UniProt Q9UF33).
T2 sequence (Q9UF33 23-1036): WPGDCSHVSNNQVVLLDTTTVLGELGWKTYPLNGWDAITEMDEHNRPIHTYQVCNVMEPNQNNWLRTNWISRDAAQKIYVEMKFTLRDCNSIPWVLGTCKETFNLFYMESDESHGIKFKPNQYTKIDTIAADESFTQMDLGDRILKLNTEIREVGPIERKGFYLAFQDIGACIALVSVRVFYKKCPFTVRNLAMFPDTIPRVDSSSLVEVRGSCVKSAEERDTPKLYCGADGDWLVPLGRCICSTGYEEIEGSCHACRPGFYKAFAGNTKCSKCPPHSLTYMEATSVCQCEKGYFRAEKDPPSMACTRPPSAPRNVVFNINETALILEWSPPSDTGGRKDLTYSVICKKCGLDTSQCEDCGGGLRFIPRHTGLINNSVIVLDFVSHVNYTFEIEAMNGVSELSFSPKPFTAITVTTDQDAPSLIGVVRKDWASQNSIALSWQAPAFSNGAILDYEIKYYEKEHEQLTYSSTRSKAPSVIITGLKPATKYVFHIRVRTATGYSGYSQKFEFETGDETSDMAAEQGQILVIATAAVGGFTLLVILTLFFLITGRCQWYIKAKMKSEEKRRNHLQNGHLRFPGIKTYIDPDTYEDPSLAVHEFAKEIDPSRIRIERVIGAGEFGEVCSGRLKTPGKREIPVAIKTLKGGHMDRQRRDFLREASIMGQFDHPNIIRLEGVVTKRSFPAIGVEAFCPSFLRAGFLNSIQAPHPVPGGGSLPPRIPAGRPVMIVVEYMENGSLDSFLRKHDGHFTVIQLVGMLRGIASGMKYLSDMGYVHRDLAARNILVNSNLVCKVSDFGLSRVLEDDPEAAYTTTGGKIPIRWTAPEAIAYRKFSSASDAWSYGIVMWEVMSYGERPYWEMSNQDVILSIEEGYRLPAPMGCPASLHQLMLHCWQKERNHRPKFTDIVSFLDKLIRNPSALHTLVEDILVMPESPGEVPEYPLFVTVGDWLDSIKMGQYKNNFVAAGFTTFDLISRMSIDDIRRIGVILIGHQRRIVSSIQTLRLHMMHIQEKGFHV
Put shortly: as §1

For another assay, the target named is PTK6 (Brk) (Homo sapiens, UniProt Q13882). Put shortly:
as §1

The target of the next assay is AKT3 (PKB gamma) (Homo sapiens, UniProt Q9Y243). The essentials: as §1
The target of the next assay is FGFR4 (Homo sapiens, UniProt P22455). Put shortly:
as §1

Drawing on patent US20250120967A1, “TYROSINE KINASES INHIBITORS AND USES THEREOF” (GREAT NOVEL THERAPEUTICS BIOTECH & MEDICALS CORPORATION, priority 2023, published 2025), this text covers inhibition for five compounds.

The structures appear in SMILES notation.

Sequence of BRAF (P15056 whole entry): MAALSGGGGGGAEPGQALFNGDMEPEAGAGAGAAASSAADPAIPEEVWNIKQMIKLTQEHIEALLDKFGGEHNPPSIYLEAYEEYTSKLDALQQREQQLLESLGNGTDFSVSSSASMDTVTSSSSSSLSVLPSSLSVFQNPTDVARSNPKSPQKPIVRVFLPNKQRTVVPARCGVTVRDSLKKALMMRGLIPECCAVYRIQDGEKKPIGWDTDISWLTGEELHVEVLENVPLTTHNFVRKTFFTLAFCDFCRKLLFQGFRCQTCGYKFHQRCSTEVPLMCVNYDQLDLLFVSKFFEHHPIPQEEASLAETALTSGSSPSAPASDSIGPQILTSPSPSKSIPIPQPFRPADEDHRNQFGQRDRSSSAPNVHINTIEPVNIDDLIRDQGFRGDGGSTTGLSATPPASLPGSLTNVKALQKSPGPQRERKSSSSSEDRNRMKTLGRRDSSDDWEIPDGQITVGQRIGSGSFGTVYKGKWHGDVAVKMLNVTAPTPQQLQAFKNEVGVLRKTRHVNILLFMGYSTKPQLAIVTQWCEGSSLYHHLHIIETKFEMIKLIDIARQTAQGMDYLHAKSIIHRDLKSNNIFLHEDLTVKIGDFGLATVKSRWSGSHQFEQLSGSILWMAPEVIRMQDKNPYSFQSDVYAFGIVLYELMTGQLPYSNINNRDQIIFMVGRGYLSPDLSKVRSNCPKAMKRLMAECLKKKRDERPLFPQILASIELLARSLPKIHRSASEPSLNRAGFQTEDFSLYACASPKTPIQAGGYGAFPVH
Sequence of BLK (P51451 whole entry): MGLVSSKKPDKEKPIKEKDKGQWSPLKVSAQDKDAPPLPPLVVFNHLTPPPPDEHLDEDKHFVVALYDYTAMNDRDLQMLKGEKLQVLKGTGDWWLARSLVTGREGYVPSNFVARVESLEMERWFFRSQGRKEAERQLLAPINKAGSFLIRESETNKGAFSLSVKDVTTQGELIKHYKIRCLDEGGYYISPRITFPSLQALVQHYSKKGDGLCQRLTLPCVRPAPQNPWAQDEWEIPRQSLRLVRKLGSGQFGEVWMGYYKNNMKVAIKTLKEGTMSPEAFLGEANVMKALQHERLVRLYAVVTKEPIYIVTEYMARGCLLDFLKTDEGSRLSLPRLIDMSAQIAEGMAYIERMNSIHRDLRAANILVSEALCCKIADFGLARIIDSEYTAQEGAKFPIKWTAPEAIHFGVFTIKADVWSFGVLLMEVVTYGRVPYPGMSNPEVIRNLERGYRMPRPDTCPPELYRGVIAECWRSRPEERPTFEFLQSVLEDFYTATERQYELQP
Sequence of AKT2 (PKB beta) (P31751 whole entry): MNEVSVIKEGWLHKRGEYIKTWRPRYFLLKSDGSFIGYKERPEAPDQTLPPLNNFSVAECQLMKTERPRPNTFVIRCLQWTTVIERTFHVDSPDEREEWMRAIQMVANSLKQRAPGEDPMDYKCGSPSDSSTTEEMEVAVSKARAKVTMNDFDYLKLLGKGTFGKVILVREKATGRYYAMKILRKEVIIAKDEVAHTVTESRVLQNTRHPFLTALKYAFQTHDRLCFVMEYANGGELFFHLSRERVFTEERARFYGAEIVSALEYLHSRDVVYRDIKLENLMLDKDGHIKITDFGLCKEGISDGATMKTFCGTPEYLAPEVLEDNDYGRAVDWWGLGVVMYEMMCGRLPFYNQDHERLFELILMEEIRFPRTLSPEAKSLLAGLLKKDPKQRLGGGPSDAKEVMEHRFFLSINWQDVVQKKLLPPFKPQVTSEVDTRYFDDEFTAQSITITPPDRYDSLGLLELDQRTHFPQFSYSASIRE
Sequence of FGFR4 (P22455 22-802): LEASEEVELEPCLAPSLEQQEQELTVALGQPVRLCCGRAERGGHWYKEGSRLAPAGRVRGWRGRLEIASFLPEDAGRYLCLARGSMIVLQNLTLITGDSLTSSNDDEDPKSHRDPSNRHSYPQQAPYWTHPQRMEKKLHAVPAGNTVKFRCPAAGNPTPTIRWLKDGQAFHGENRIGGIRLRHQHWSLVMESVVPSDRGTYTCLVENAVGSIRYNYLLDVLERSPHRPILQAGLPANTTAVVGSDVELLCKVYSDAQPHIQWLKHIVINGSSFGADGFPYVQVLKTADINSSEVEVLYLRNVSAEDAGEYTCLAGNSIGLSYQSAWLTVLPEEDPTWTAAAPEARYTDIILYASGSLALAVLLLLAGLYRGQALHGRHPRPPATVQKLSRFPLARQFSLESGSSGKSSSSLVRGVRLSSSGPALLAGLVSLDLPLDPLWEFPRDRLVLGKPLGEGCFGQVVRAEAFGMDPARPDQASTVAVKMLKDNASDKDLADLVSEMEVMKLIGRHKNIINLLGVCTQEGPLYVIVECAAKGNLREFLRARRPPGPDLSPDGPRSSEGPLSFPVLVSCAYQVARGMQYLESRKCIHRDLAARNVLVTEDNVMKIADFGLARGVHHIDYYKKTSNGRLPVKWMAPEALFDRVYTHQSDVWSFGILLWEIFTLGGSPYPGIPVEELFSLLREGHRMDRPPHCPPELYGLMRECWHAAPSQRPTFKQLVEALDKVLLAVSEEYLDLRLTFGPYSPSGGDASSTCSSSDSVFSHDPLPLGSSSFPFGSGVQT
Sequence of PTK6 (Brk) (Q13882 whole entry): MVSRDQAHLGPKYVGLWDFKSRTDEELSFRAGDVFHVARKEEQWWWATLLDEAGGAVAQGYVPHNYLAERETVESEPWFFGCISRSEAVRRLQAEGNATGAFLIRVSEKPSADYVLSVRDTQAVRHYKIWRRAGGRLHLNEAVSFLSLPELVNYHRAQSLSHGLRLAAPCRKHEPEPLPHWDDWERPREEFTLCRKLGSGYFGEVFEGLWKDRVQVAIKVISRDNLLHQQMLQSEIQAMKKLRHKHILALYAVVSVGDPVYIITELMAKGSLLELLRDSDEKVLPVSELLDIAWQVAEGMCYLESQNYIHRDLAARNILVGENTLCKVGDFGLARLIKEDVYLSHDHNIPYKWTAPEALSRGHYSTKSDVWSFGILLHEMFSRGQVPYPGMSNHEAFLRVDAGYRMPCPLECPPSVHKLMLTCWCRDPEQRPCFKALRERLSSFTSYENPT
Sequence of AKT3 (PKB gamma) (Q9Y243 whole entry): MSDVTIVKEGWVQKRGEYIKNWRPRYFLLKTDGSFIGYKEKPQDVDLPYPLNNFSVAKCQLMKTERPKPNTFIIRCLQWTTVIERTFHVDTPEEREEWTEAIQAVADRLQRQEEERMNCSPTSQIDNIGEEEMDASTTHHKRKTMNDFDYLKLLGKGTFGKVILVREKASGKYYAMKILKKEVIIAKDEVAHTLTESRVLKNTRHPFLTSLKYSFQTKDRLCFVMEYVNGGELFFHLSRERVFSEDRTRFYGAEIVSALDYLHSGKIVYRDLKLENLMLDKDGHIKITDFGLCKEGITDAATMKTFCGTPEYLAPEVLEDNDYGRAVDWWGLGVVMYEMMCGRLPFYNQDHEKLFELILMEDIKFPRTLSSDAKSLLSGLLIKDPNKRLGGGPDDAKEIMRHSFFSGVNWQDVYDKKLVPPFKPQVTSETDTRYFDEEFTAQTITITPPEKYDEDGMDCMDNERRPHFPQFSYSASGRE

Usually inhibition stands for the relative decrease from the control value, in per cent. As for `COc1cc2nccc(Oc3ccc(NC(=O)C4(C(=O)Nc5ccc(F)cc5)CC4)cc3)c2cc1OC` [Cabozantinib, reference compound], the inhibition at 1 µM was 17% on AKT2 (PKB beta); 83% on BLK; 100% on DDR2; 13% on BRAF; 103% at EPHA6; 103% at PTK6 (Brk). For the same compound, the values for the inhibition at 1 µM at AKT3 (PKB gamma) and on FGFR4 were 8% and -2%, respectively.
`COc1cc2nccc(Oc3ccc(NC(=O)C4(NC(=O)c5ccc(F)cc5)CC4)cc3F)c2cc1OC` [Cbo-02, N-(1-((4-((6,7-diMethoxyquinolin-4-yl)oxy)-3-fluorophenyl)carbamoyl)cyclopropyl)-4-fluorobenzamide]: the inhibition at 1 µM came to 10% on AKT2 (PKB beta); 61% at BLK; 32% on DDR2; 4% on BRAF; 75% at EPHA6; 73% on PTK6 (Brk). Further, the inhibition at 1 µM on AKT3 (PKB gamma) came out at 5%; on FGFR4, 0%.
Take `COc1cc2nccc(Oc3ccc(NC(=O)C4(NC(=O)c5ccc(F)cc5)CC4)cc3F)c2cc1Oc1ccc(N)cc1F` [Cbo-10]: the inhibition at 1 µM on AKT2 (PKB beta) turned out to be 5%; at BLK it was 80%; at DDR2 it was 51%; at BRAF, 4%; on EPHA6, 94%; at PTK6 (Brk), 91%. The inhibition at 1 µM at AKT3 (PKB gamma) was found to be 7%; on FGFR4, 1%.
As to `COc1cc2nccc(Oc3ccc(NC(=O)C4(NC(=O)c5ccc(F)cc5)CC4)cc3F)c2cc1Oc1c(F)cc(N)cc1F` [Cbo-14], the inhibition at 1 µM on AKT2 (PKB beta) was found to be 10%; on BLK, 80%; on DDR2, 60%; at BRAF, 1%; on EPHA6 it was 96%; on PTK6 (Brk), 94%. The inhibition at 1 µM at AKT3 (PKB gamma) is 6%; at FGFR4, -1%.
Turning to `COc1cc2nccc(Oc3ccc(NC(=O)C4(C(=O)Nc5ccc(F)cc5)CC4)cc3F)c2cc1Oc1ccc(N)cc1F` [Cbo-23], the inhibition at 1 µM on AKT2 (PKB beta) came out at 0%; on BLK, 93%; on DDR2 it was 91%; on BRAF it was 3%; on EPHA6, 100%; on PTK6 (Brk), 97%. In addition, the results for the inhibition at 1 µM on AKT3 (PKB gamma) and on FGFR4 were -1% and 13%, respectively.
